We go through one molecule from patent publication US11384182B2, “Supramolecular polymer composition and method of preparation thereof” (City University of Hong Kong, priority 2019, dated 2022).

SMILES strings stand for the structures.

The conditions of data set [1]: cited from earlier work.
Data set [2] can be described thus: release of carvacrol in air by weight loss. The data set is classed as physicochemical. The note with it: at 100 days. As to the method:
The amount of carvacrol, i.e. the hydrophobic material in the composition, released in air was calculated by weight loss and is illustrated in FIG. 8C. The amount of carvacrol released in water was monitored by UV-vis scanning spectrophotometer (Shimadzu 1700), wherein

Consider `Cc1ccc(C(C)C)cc1O` [carvacrol], for which the “saturation concentration in water” value in data set [1] is “about 3 mM”. In data set [2], the “reduction of the original mass” value was “approximately 40%”.
